Results on 27 compounds are retold here after patent US12018021B2 (UCB Biopharma SRL, priority 2018, dated 2024).

Some results are limits rather than exact numbers.

By IC50 is commonly meant the concentration that gives 50% inhibition.

Sequence of IgE-Tb / FcεRIα-Y131A-AF488 (P01854 1-427 limits assumed, stated change not applied): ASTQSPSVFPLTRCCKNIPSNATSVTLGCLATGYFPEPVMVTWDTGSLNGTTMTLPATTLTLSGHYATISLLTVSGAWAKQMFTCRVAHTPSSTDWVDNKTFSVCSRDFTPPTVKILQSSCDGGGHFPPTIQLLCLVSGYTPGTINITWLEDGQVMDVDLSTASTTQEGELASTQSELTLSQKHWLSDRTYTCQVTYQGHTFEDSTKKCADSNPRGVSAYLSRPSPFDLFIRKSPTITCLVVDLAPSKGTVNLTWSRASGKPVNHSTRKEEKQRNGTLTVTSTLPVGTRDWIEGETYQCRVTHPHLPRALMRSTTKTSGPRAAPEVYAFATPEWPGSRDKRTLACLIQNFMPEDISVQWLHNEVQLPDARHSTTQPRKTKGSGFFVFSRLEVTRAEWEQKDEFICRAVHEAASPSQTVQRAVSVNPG

The target of this assay is IgE-Tb / FcεRIα-Y131A-AF488 (Homo sapiens, UniProt P01854). Briefly: IgE-Tb / FcεRIα-Y131A-AF488 FRET assay (protocol for examples 1 to 233). The class given is binding. To be noted: examples 1 to 233: 5 nM IgE-Tb, 25 nM FcεRIα-Y131A-AF488, incubated 2 hours at room temperature; read-out: Y131A FRET IC50 range. The gist of the method:
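Compounds (top final concentration usually 10 μM, 3-fold, 10 points, 2% DMSO) incubated 2 h at room temperature with IgE-Tb (5 nM) and FcεRIα-Y131A-AF488 (25 nM). Background from 200 nM unlabelled receptor subtracted; FRET ratio 520/495 nm after 330 nm excitation gave percent inhibition, fitted four-parameter for IC50.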
Regarding `CCNC1=NS(=O)(=O)N=C1NC1CCc2sc(NC(=O)C3CC3)c(C(=O)NCC3CC3)c2C1` (stereo not drawn) [Example 134, 2-(Cyclopropanecarbonylamino)-N-(cyclopropylmethyl)-5-[[4-(ethylamino)-1,1-dioxo-1,2,5-thiadiazol-3-yl]amino]-4,5,6,7-tetrahydrobenzothiophene-3-carboxamide], the IC50 is < 1 µM.
As for `Cc1ccc(NC(=C[N+](=O)[O-])NC2CCc3sc(NC(=O)C4CC4)c(C(=O)NCC4CC4)c3C2)cc1` (stereo not drawn) [Example 135, 2-(cyclopropanecarbonylamino)-N-(cyclopropylmethyl)-5-[[1-(4-methylanilino)-2-nitro-vinyl]amino]-4,5,6,7-tetrahydrobenzothiophene-3-carboxamide], the figure is < 1 µM; as for `CCNC(=NC#N)N(C)[C@H]1CCc2sc(NC(=O)C3CC3)c(C(=O)NCC3CC3)c2C1` [Example 136, (5S)-5-[(N′-cyano-N-ethyl-carbamimidoyl)-methyl-amino]-2-(cyclopropanecarbonylamino)-N-(cyclopropylmethyl)-4,5,6,7-tetrahydrobenzothiophene-3-carboxamide], < 1 µM; as for `Cc1ccc(Nc2c(NC3CCc4sc(NC(=O)C5CC5)c(C(=O)NCC5CC5)c4C3)c(=O)c2=O)cc1` (stereo not drawn) [Example 137, 2-(Cyclopropanecarbonylamino)-N-(cyclopropylmethyl)-5-[[2-(4-methylanilino)-3,4-dioxo-cyclobuten-1-yl]amino]-4,5,6,7-tetrahydrobenzothiophene-3-carboxamide], < 1 µM.
For the compound `O=C(NCC1CC1)c1c(NC(=O)C2CC2)sc2c1C[C@@H](n1cnnc1Nc1ccccn1)CC2` [Example 138, (5S)-2-(Cyclopropanecarbonylamino)-N-(cyclopropylmethyl)-5-[3-(2-pyridylamino)-1,2,4-triazo-4-yl]-4,5,6,7-tetrahydrobenzothiophene-3-carboxamide], the IC50 was < 1 µM.
To `CC(=O)Nc1nccn1[C@H]1CCc2sc(NC(=O)C3CC3)c(C(=O)NCC3CC3)c2C1` [Example 139, (5S)-5-(2-Acetamidoimidazol-1-yl)-2-(cyclopropanecarbonylamino)-N-(cyclopropylmethyl)-4,5,6,7-tetrahydrobenzothiophene-3-carboxamide] belongs < 1 µM.
As for `O=C(NCC1CC1)c1c(NC(=O)C2CC2)sc2c1CC(n1nncc1Nc1cccnc1)CC2` (stereo not drawn) [Example 141, 2-(Cyclopropanecarbonylamino)-N-(cyclopropylmethyl)-5-[5-(3-pyridylamino)triazo-1-yl]-4,5,6,7-tetrahydrobenzothiophene-3-carboxamide], the figure is < 1 µM; as for `CCNC(=S)NC1CCc2sc(NC(=O)C3CC3)c(C(=O)NCC3CC3)c2C1` (stereo not drawn) [Example 142, 2-(Cyclopropanecarbonylamino)-N-(cyclopropylmethyl)-5-(ethylcarbamothioylamino)-4,5,6,7-tetrahydrobenzothiophene-3-carboxamide], < 1 µM.
As to `O=C(NCC1CC1)c1c(NC(=O)C2CC2)sc2c1C[C@@H](n1cnnc1N[C@H]1CCOC1)CC2` [Example 143, (5S)-2-(cyclopropanecarbonylamino)-N-(cyclopropylmethyl)-5-[3-[[(3S)-tetrahydrofuran-3-yl]amino]-1,2,4-triazol-4-yl]-4,5,6,7-tetrahydrobenzothiophene-3-carboxamide], the IC50 was < 1 µM.
To `CCNC(=NC#N)NC1CCc2sc(NC(=O)C3CC3)c(C(=O)NCC3CC3)c2C1` (stereo not drawn) [Example 144, 5-[[N′-Cyano-N-ethyl-carbamimidoyl]amino]-2-(cyclopropanecarbonylamino)-N-(cyclopropylmethyl)-4,5,6,7-tetrahydrobenzothiophene-3-carboxamide] belongs < 1 µM; to `CCN/C(=N\[N+](=O)[O-])N[C@H]1CCc2sc(NC(=O)C3CC3)c(C(=O)NCC3CC3)c2C1` [Example 145, (5S)-2-(Cyclopropanecarbonylamino)-N-(cyclopropylmethyl)-5-[[(E)-N-ethyl-N′-nitro-carbamimidoyl]amino]-4,5,6,7-tetrahydrobenzothiophene-3-carboxamide], < 1 µM; to `CCN/C(=N\[N+](=O)[O-])N[C@@H]1CCc2sc(NC(=O)C3CC3)c(C(=O)NCC3CC3)c2C1` [Example 146, (5R)-2-(Cyclopropanecarbonylamino)-N-(cyclopropylmethyl)-5-[[(E)-N-ethyl-N′-nitro-carbamimidoyl]amino]-4,5,6,7-tetrahydrobenzothiophene-3-carboxamide], 10 to 50 µM.
To `CCNc1nccn1[C@H]1CCc2sc(NC(=O)C3CC3)c(C(=O)NCC3CC3)c2C1` [Example 147, (5S)-2-(Cyclopropanecarbonylamino)-N-(cyclopropylmethyl)-5-[2-(ethylamino)imidazol-1-yl]-4,5,6,7-tetrahydrobenzothiophene-3-carboxamide] belongs < 1 µM; to `Cc1noc(C)c1Nc1nncn1[C@H]1CCc2sc(NC(=O)C3CC3)c(C(=O)NCC3CC3)c2C1` [Example 148, (5S)-2-(Cyclopropanecarbonylamino)-N-(cyclopropylmethyl)-5-[3-[(3,5-dimethylisoxazol-4-yl)amino]-1,2,4-triazol-4-yl]-4,5,6,7-tetrahydrobenzothiophene-3-carboxamide], < 1 µM.
With `CCOC(=O)N=C(Nc1ccc(C)cc1)NC1CCc2sc(NC(=O)C3CC3)c(C(=O)NCC3CC3)c2C1` (stereo not drawn) [Example 149, ethyl N-[[[2-(cyclopropanecarbonylamino)-3-(cyclopropylmethylcarbamoyl)-4,5,6,7-tetrahydrobenzothiophen-5-yl]amino]-(4-methylanilino)methylene]carbamate], the IC50 is < 1 µM.
For `Cc1ncccc1Nc1nccn1[C@H]1CCc2sc(NC(=O)C3CC3)c(C(=O)NCC3CC3)c2C1` [Example 150, (5S)-2-(Cyclopropanecarbonylamino)-N-(cyclopropylmethyl)-5-[2-[(2-methyl-3-pyridyl)amino]imidazol-1-yl]-4,5,6,7-tetrahydrobenzothiophene-3-carboxamide], the IC50 is < 1 µM.
As for `CCNC(=C[N+](=O)[O-])NC1CCc2sc(NC(=O)C3CC3)c(C(=O)NCC3CC3)c2C1` (stereo not drawn) [Example 151, 2-(cyclopropanecarbonylamino)-N-(cyclopropylmethyl)-5-[[1-(ethylamino)-2-nitro-vinyl]amino]-4,5,6,7-tetrahydrobenzothiophene-3-carboxamide], the figure is 1 to 10 µM; as for `Cc1cc(=O)[nH]c(NC2CCc3sc(NC(=O)C4CC4)c(C(=O)NCC4CC4)c3C2)n1` (stereo not drawn) [Example 152, 2-(Cyclopropanecarbonylamino)-N-(cyclopropylmethyl)-5-[(4-methyl-6-oxo-1H-pyrimidin-2-yl)amino]-4,5,6,7-tetrahydrobenzothiophene-3-carboxamide], < 1 µM; as for `CNC(=O)c1ncn([C@H]2CCc3sc(NC(=O)C4CC4)c(C(=O)NCC4CC4)c3C2)c1N` [Example 153, 5-amino-1-[(5S)-2-cyclopropaneamido-3-[(cyclopropylmethyl)carbamoyl]-4,5,6,7-tetrahydro-1-benzothiophen-5-yl]-N-methyl-1H-imidazole-4-carboxamide], < 1 µM.
As for `NC(=O)c1ncn([C@H]2CCc3sc(NC(=O)C4CC4)c(C(=O)NCC4CC4)c3C2)c1N` [Example 154, 5-amino-1-[(5S)-2-cyclopropaneamido-3-[(cyclopropylmethyl)carbamoyl]-4,5,6,7-tetrahydro-1-benzothiophen-5-yl]-1H-imidazole-4-carboxamide], the figure is < 1 µM; as for `O=C(NCC1CC1)c1c(NC(=O)C2CC2)sc2c1CC(n1ccnc1Nc1ccccc1)CC2` (stereo not drawn) [Example 155, 5-(2-Anilinoimidazol-1-yl)-2-(cyclopropanecarbonylamino)-N-(cyclopropylmethyl)-4,5,6,7-tetrahydrobenzothiophene-3-carboxamide], < 1 µM.
To `CCNC(=NC#N)N[C@H]1CCc2sc(NC(=O)C3CC3)c(C(=O)NCC3CC3)c2C1` [Example 156, (5S)-5-[[N′-cyano-N-ethyl-carbamimidoyl]amino]-2-(cyclopropanecarbonylamino)-N-(cyclopropylmethyl)-4,5,6,7-tetrahydrobenzothiophene-3-carboxamide] belongs < 1 µM; to `CCNC(=O)NC1CCc2sc(NC(=O)C3CC3)c(C(=O)NCC3CC3)c2C1` (stereo not drawn) [Example 157, 2-(Cyclopropanecarbonylamino)-N-(cyclopropylmethyl)-5-(ethylcarbamoylamino)-4,5,6,7-tetrahydrobenzothiophene-3-carboxamide], 1 to 10 µM.
`O=C(NCC1CC1)c1c(NC(=O)C2CC2)sc2c1CC(Nc1cc(=O)cc[nH]1)CC2` (stereo not drawn) [Example 158, 2-(Cyclopropanecarbonylamino)-N-(cyclopropylmethyl)-5-[(4-oxo-1H-pyridin-2-yl)amino]-4,5,6,7-tetrahydrobenzothiophene-3-carboxamide]: the IC50 is < 1 µM.
To `Cc1nnc(-c2ccc(N[C@H]3CCc4sc(NC(=O)C5CC5)c(C(=O)NCC5CC5)c4C3)cn2)o1` [Example 159, (5S)-2-(cyclopropanecarbonylamino)-N-(cyclopropylmethyl)-5-[[6-(5-methyl-1,3,4-oxadiazol-2-yl)-3-pyridyl]amino]-4,5,6,7-tetrahydrobenzothiophene-3-carboxamide] belongs < 1 µM; to `CCNc1nnnn1C1CCc2sc(NC(=O)C3CC3)c(C(=O)NCC3CC3)c2C1` (stereo not drawn) [Example 160, 2-(Cyclopropanecarbonylamino)-N-(cyclopropylmethyl)-5-[5-(ethylamino)tetrazol-1-yl]-4,5,6,7-tetrahydrobenzothiophene-3-carboxamide], < 1 µM; to `O=C(NCC1CC1)c1c(NC(=O)C2CC2)sc2c1CC(Nc1nc[nH]n1)CC2` (stereo not drawn) [Example 161, 2-(Cyclopropanecarbonylamino)-N-(cyclopropylmethyl)-5-(1H-1,2,4-triazol-3-ylamino)-4,5,6,7-tetrahydrobenzothiophene-3-carboxamide], < 1 µM.
